Marks after values point to notes of the source that are not given here.
Key:
CD8+ T cells = assay: Viability and effects on CD8+ T cells after 72 hours of exposure; type: cell-based
Protocol: (§1) In vitro assays designed to assess the viability and effects of GZ17-6.02, GZ17-6.02.02, its metabolites as single agents, and the metabolites in combination effects of CD8+ T cells and CD56+ natural killer cells after 72 hours of exposure. Test agents used included 6.02 (77% Isovanillin+13% Harmine+10% Curcumin), 6.02.02 (77% Isovanillin+13% Harmine+8.5% Curcumin sulfate tetrabutylammonium salt+1.5% Curcumin β-D-glucuronide), Curcumin metabolites combination (85% Curcumin sulfate tetrabutylammonium salt+15% Curcumin β-D-glucuronide), Curcumin metabolites single agents (single agent Curcumin sulfate tetrabutylammonium salt, or single agent Curcumin 3-D-glucuronide).

[1] = test system: CD56+ natural killer cells; assay: Viability and effects on CD56+ natural killer cells after 72 hours of exposure; type: cell-based
Protocol: as §1

H1650 cells (wild type) = assay: In-cell immunostaining of protein expression and phosphorylation, H1650 wild type cells; type: cell-based, human; conditions: 1650 WT; 6 h; GZ17-6.02 2 mM final curcumin, osimertinib 100 nM; vehicle 100%
Protocol: (§2) Assessments of protein expression and protein phosphorylation. Multi-channel fluorescence HCS microscopes perform true in-cell western blotting. Three independent cultures derived from three thawed vials of cells of a tumor were sub-cultured into individual 96-well plates. Twenty-four hours after plating, the cells are transfected with a control plasmid or a control siRNA, or with an empty vector plasmid or with plasmids to express various proteins. After another 24 hours, the cells are ready for drug exposure(s). At various time-points after the initiation of drug exposure, cells are fixed in place using paraformaldehyde and using Triton X100 for permeabilization. Standard immunofluorescent blocking procedures are employed, followed by incubation of different wells with a variety of validated primary antibodies and subsequently validated fluorescent-tagged secondary antibodies are added to each well. The microscope determines the background fluorescence in the well and in parallel randomly determines the mean fluorescent intensity of 100 cells per well.

[2] = test system: afatinib-resistant (AR) H1975 cells; assay: In-cell immunostaining of protein expression and phosphorylation, afatinib-resistant H1975 cells; type: cell-based, human; conditions: 1975 AR; 6 h; GZ17-6.02 2 mM final curcumin, osimertinib 100 nM; vehicle 100%
Protocol: (§3) […] Cells were fixed in place 6 hours after treatment and immunostaining of single cells performed to determine the levels of each protein/phosphor-protein (n=3+/−SD). * p<0.05 less than vehicle control; # p<0.05 greater than vehicle control.
Generation of erlotinib, afatinib and osimertinib-resistant cells. Cells were incubated in vitro with increasing concentrations of vehicle control or erlotinib or osimertinib until after ˜6 weeks the HCC827 and H1975 and H1650 cells grew with similar kinetics to sensitive cells in either erlotinib ([…]) or osimertinib ([…]), respectively. Afatinib-resistant cells were created in vivo by repeated high dosing until tumors disappeared and then regrew, as previously described.
as §2

[3] = test system: H1975 cells (wild type sensitive); assay: In-cell immunostaining of protein expression and phosphorylation, H1975 wild type cells; type: cell-based, human; conditions: 1975 WT; 6 h; GZ17-6.02 2 mM final curcumin, osimertinib 100 nM; vehicle 100%
Protocol: as §3, §2

H1975 cells = assay: Trypan blue cell death assay, H1975 cells (wild type, afatinib- and osimertinib-resistant); type: cell-based, human; conditions: osimertinib-resistant H1975 and H1650 cells, 24 h
Protocol: Detection of cell death by trypan blue assay. Cells were treated with vehicle control or with drugs alone or in combination for 24 h. At the indicated time points cells were harvested by trypsinization and centrifugation. Cell pellets were resuspended in PBS and mixed with trypan blue agent. Viability was determined microscopically using a hemocytometer. Five hundred cells from randomly chosen fields were counted and the number of dead cells was counted and expressed as a percentage of the total number of cells counted.
H1650, wild type sensitive and afatinib resistant (AR) H1975 and erlotinib resistant (ER) HCC827 cells were treated with vehicle, erlotinib (500 nM), afatinib (500 nM), GZ17-6.02 (2 mM curcumin final) or the drugs in combination for 24 h. […] In a separate study, cells were treated with vehicle, osimertinib (100 nM), GZ17-6.02 (2 mM curcumin final) or the drugs in combination for 24 h.
Osimertinib-resistant H1975 and H1650 cells were generated as described and studied to determine if GZ17-6.02 interacts with pemetrexed to kill NSCLC cells. H1975 and H1650 cells (wild type sensitive and osimertinib resistant (OR)) were treated with vehicle, erlotinib (500 nM), afatinib (500 nM), osimertinib (100 nM), GZ17-6.02 (2 mM curcumin final) or the drugs in combination for 24 h. […]

COc1cc(/C=C/C(=O)CC(=O)/C=C/c2ccc(O[C@@H]3O[C@H](C(=O)O)[C@@H](O)[C@H](O)[C@H]3O)c(OC)c2)ccc1O [Curcumin B-D-Glucuronide, Curcumin β-D-glucuronide]
CD8 + T Cells % of control (CD8+ T cells; 0.03 μM): 124.35 % of control | CD8 + T Cells % of control (CD8+ T cells; 0.3 μM): 114.54 % of control | CD8 + T Cells % of control (CD8+ T cells; 3 μM): 118.58 % of control | CD8 + T Cells % of control (CD8+ T cells; 30 μM): 110.23 % of control | CD56 + NK Cells % of control ([1]; 0.03 μM): 98.08 % of control | CD56 + NK Cells % of control ([1]; 0.3 μM): 100.22 % of control | CD56 + NK Cells % of control ([1]; 3 μM): 93.81 % of control | CD56 + NK Cells % of control ([1]; 30 μM): 95.28 % of control

C=CC(=O)Nc1cc(Nc2nccc(-c3cn(C)c4ccccc34)n2)c(OC)cc1N(C)CCN(C)C [OSI]
ATG5 (H1650 cells (wild type)): 106% | Beclin1 (H1650 cells (wild type)): 103% | CD95 (H1650 cells (wild type)): 100% | CHOP (H1650 cells (wild type)): 106% | ERBB1 (H1650 cells (wild type)): 98% | ERBB2 (H1650 cells (wild type)): 94% | ERBB3 (H1650 cells (wild type)): 100% | ERBB4 (H1650 cells (wild type)): 100% | ERK2 (H1650 cells (wild type)): 100% | FAS-L (H1650 cells (wild type)): 104% | FLIP-s (H1650 cells (wild type)): 102% | GRP78 (H1650 cells (wild type)): 111% | HDAC1 (H1650 cells (wild type)): 99% | HDAC2 (H1650 cells (wild type)): 98% | HDAC3 (H1650 cells (wild type)): 98% | HDAC4 (H1650 cells (wild type)): 101% | HDAC5 (H1650 cells (wild type)): 99% | HDAC6 (H1650 cells (wild type)): 98% | HDAC7 (H1650 cells (wild type)): 99% | HDAC8 (H1650 cells (wild type)): 101% | HDAC9 (H1650 cells (wild type)): 100% | HDAC10 (H1650 cells (wild type)): 98% | HDAC11 (H1650 cells (wild type)): 100% | IDO1 (H1650 cells (wild type)): 100% | JNK1/2 (H1650 cells (wild type)): 104% | MHCA (H1650 cells (wild type)): 103% | NOXA (H1650 cells (wild type)): 101% | ODC (H1650 cells (wild type)): 104% | P-AKT T308 (H1650 cells (wild type)): 90% | P-AMPKα T172 (H1650 cells (wild type)): 98% | P-ATG13 S318 (H1650 cells (wild type)): 115# % | P-ATM S1980 (H1650 cells (wild type)): 98% | P-B1 (H1650 cells (wild type)): 61* % | P-B2 (H1650 cells (wild type)): 97% | P-B3 (H1650 cells (wild type)): 96% | P-B4 (H1650 cells (wild type)): 96% | P-ERK1/2 (H1650 cells (wild type)): 82* % | P-JAK2 (H1650 cells (wild type)): 86* % | P-JNK1/2 (H1650 cells (wild type)): 91% | P-MEK1/2 (H1650 cells (wild type)): 97% | P-NFκB S536 (H1650 cells (wild type)): 83* % | P-PDGFRβ (H1650 cells (wild type)): 93% | P-PERK T980 (H1650 cells (wild type)): 104% | P-SRC Y416 (H1650 cells (wild type)): 83* % | P-SRC Y527 (H1650 cells (wild type)): 105% | P-STAT3 Y705 (H1650 cells (wild type)): 95% | P-STAT5 Y694 (H1650 cells (wild type)): 98% | P-TAZ S89 (H1650 cells (wild type)): 101% | P-ULK1 S317 (H1650 cells (wild type)): 107% | P-ULK1 S757 (H1650 cells (wild type)): 81* % | P-YAP S127 (H1650 cells (wild type)): 102% | P-c-KIT (H1650 cells (wild type)): 92% | P-c-MET (H1650 cells (wild type)): 94% | P-eIF2α S51 (H1650 cells (wild type)): 114% | P-mTOR S2448 (H1650 cells (wild type)): 96% | P-mTOR S2481 (H1650 cells (wild type)): 87* % | P-β-catenin (H1650 cells (wild type)): 102% | PD-L1 (H1650 cells (wild type)): 97% | PD-L2 (H1650 cells (wild type)): 97% | PDGFRβ (H1650 cells (wild type)): 106% | PP1 (H1650 cells (wild type)): 103% | PUMA (H1650 cells (wild type)): 100% | TAZ (H1650 cells (wild type)): 101% | Total ERK2 (H1650 cells (wild type)): 100% | YAP (H1650 cells (wild type)): 98% | c-KIT (H1650 cells (wild type)): 100% | c-MET (H1650 cells (wild type)): 98% | p70 S6K T389 (H1650 cells (wild type)): 99% | β-catenin (H1650 cells (wild type)): 101% | ATG5 [2]: 105% | Beclin1 [2]: 109% | CHOP [2]: 102% | ERBB1 [2]: 100% | ERBB2 [2]: 102% | ERBB3 [2]: 101% | ERBB4 [2]: 98% | FLIP-s [2]: 79* % | GRP78 [2]: 103# % | NOXA [2]: 100% | P-AKT T308 [2]: 86* % | P-AMPKα T172 [2]: 102% | P-ATG13 S318 [2]: 121# % | P-ATM S1980 [2]: 101% | P-B1 [2]: 76* % | P-B2 [2]: 101% | P-B3 [2]: 100% | P-B4 [2]: 97% | P-MEK1/2 [2]: 82* % | P-PERK T980 [2]: 111% | P-STAT3 Y705 [2]: 92% | P-STAT5 Y694 [2]: 95% | P-ULK1 S317 [2]: 99% | P-ULK1 S757 [2]: 65* % | P-eIF2α S51 [2]: 105% | P-mTOR S2448 [2]: 66* % | P-mTOR S2481 [2]: 71* % | PP1 [2]: 112% | PUMA [2]: 98% | Total ERK2 [2]: 100% | p70 S6K T389 [2]: 99% | ATG5 [3]: 111% | Beclin1 [3]: 113# % | CD95 [3]: 102% | CHOP [3]: 109% | ERBB1 [3]: 99% | ERBB2 [3]: 100% | ERBB3 [3]: 101% | ERBB4 [3]: 99% | ERK2 [3]: 99% | FAS-L [3]: 101% | FLIP-s [3]: 85* % | GRP78 [3]: 119# % | HDAC1 [3]: 97% | HDAC2 [3]: 99% | HDAC3 [3]: 96% | HDAC4 [3]: 93% | HDAC5 [3]: 100% | HDAC6 [3]: 105% | HDAC7 [3]: 103% | HDAC8 [3]: 99% | HDAC9 [3]: 98% | HDAC10 [3]: 99% | HDAC11 [3]: 96% | IDO1 [3]: 99% | JNK1/2 [3]: 101% | MHCA [3]: 96% | NOXA [3]: 100% | ODC [3]: 100% | P-AKT T308 [3]: 81* % | P-AMPKα T172 [3]: 101% | P-ATG13 S318 [3]: 126# % | P-ATM S1980 [3]: 100% | P-B1 [3]: 73* % | P-B2 [3]: 101% | P-B3 [3]: 100% | P-B4 [3]: 102% | P-ERK1/2 [3]: 70* % | P-JAK2 [3]: 83* % | P-JNK1/2 [3]: 89% | P-MEK1/2 [3]: 83* % | P-NFκB S536 [3]: 100% | P-PDGFRβ [3]: 89% | P-PERK T980 [3]: 109% | P-SRC Y416 [3]: 95% | P-SRC Y527 [3]: 102% | P-STAT3 Y705 [3]: 92% | P-STAT5 Y694 [3]: 88% | P-TAZ S89 [3]: 114# % | P-ULK1 S317 [3]: 105% | P-ULK1 S757 [3]: 63* % | P-YAP S127 [3]: 113# % | P-c-KIT [3]: 99% | P-c-MET [3]: 92% | P-eIF2α S51 [3]: 109% | P-mTOR S2448 [3]: 68* % | P-mTOR S2481 [3]: 68* % | P-β-catenin [3]: 111% | PD-L1 [3]: 99% | PD-L2 [3]: 97% | PDGFRβ [3]: 100% | PP1 [3]: 104% | PUMA [3]: 99% | TAZ [3]: 100% | Total ERK2 [3]: 99% | YAP [3]: 99% | c-KIT [3]: 98% | c-MET [3]: 101% | p70 S6K T389 [3]: 92% | β-catenin [3]: 98%

C#Cc1cccc(Nc2ncnc3cc(OCCOC)c(OCCOC)cc23)c1 [erlotinib, Erlotinib]
ability to enhance GZ17-6.02 killing (H1975 cells): abolished

C=CC(=O)Nc1cc(Nc2nccc(-c3cn(C)c4ccccc34)n2)c(OC)cc1N(C)CCN(C)C [osimertinib, Osimertinib]
ability to enhance GZ17-6.02 killing (H1975 cells): abolished

Curcumin sulfate tetrabutylammonium salt
CD8 + T Cells % of control (CD8+ T cells; 0.03 μM): 107.62 % of control | CD8 + T Cells % of control (CD8+ T cells; 0.3 μM): 170.61 % of control | CD8 + T Cells % of control (CD8+ T cells; 3 μM): 154.26 % of control | CD8 + T Cells % of control (CD8+ T cells; 30 μM): 143.23 % of control | CD56 + NK Cells % of control ([1]; 0.03 μM): 104.14 % of control | CD56 + NK Cells % of control ([1]; 0.3 μM): 103.40 % of control | CD56 + NK Cells % of control ([1]; 3 μM): 110.77 % of control | CD56 + NK Cells % of control ([1]; 30 μM): 107.76 % of control
